The values below are quoted from earlier work in PMC3983394 (Journal of Medicinal Chemistry, 2014).

The test system of series [1] is mice.
Series [2] deals with mice. This is another data set of the same source.
Series [3] relates to mice. The source holds these as a separate data set.
The test system of series [4] is mice. This is another data set of the same source.

`CN1CCC[C@H]1c1cccnc1` [nicotine]: in the series on mice [1], the ED50 tail-flick is listed as 1.3 (0.5–1.8) mg/kg. The ED50 hot-plate in the series with mice [2] is 0.65 (0.25–0.85) mg/kg. In addition, in the series on mice [3], the ED50 hypothermia is recorded as 1.0 (0.6–2.1) mg/kg. The ED50 spontaneous activity in the series with mice [4] is 0.5 (0.15–0.78) mg/kg.
